“Also recorded” adds a separate entry of the source.
Assays:
[1] = tested on: rat peritoneal exudate cells; assay: inhibition of histamine secretion from rat peritoneal exudate cells; type: cell-based; conditions: 10 min, phosphatidyl-L-serine and concanavalin A, 37° C, read-out: Rate of suppression of histamine secretion
Procedure: Influence on histamine secretion from rat peritoneal exudate cells
Rats with body weights of 150-180 g were killed under dry ether anesthesia by exsanguination, and mast cell medium prepared according to the method of Sullivan, et al. J. Immunol. 114, 1473 (1975)](hereinafter abbreviated as MCM, composition: 150mM NaCl, 3.7 mM KCl, 3 mM Na2 HPO4, 3.5 mM KH2 PO4, 1 mM CaCl2, 5.6 mM glucose, 0.1% bovine serum albumin, 10 U/ml heparin) was injected intraperitoneally into the animals at 6 ml/animal. The abdominal parts were massaged for two minutes, and then cut open to sample exuded solution in the abdominal cavities. The exuded solution collected from 6 rats was centrifuged a 100×g for 5 minutes at 4° C, and the precipitate was mixed with an appropriate amount of water-cooled MCM, and washed three times to prepare a cell suspension (peritoneal exudate cells, hereinafter abbreviated as PEC) containing mast cells at a final concentration of about 3×10^4 cells/ml. Identification of mast cells was carried out by staining intracellular granules with 0.05% Toluidine Blue. Then, 1 ml of the thus obtained PEC was preincubated at 37° C for 10 minutes, and then admixed with 0.1 ml of test solutions at various concentrations and incubated for 10 minutes. The incubated mixtures were further admixed with 0.1 ml each of 100 μg/ml phosphatidyl-L-serine and 1000 μg/ml concanavalin A, followed by incubation for 15 minutes. The reaction was discontinued by addition of 3 ml of ice-cooled physiological saline solution, and the mixture was centrifuged at 1100×g for 10 minutes at 4° C. to obtain a supernatant and a residue. Histamine contents of the supernatant and the residue were measured by fluorometry according to the method of Komatsu [Allergy 27, 67 (1978)].
The histamine secretion rate was defined by a percentage of histamine content in the supernatant to total histamine content in the cells. The rate of suppression of histamine secretion by the test solution was calculated according to the following equation.
Rate of suppression of secretion (%) [formula]

[2] = solubility and stability in alkaline medium (physicochemical properties); conditions: for stability in basic substances / alkaline water: basic substances such as pyridine, monoethanolamine, and alkaline water; for Solubility: Also soluble in basic substances: soluble but readily decomposed; for Solubility: Insoluble in: solvents listed as Insoluble; for Solubility: Soluble in: solvents listed as Soluble
rabbit aorta = assay: inhibition of contraction using extirpated blood vessel preparations (vasodilative activity); conditions: contraction by 20 mM KCl, added 30 minutes before; for inhibition at 10 µg/mL: final concentration 10.0 μg/ml
Procedure: The vosodilative activity of KS-504a, KS-504b and KS-504d is explained below, referring to Experimental Example 1 on inhibition of contraction using extirpated blood vessel preparations.
White bastard rabbits (male, 2-3 kg) were incised along the abdominal median line. The aorta was cut out with a length of about 2-2.5 cm from the venter, and spiral strips with a width of 3-4 mm were prepared therefrom. The strips were ligated with silk yarn at both ends, and the lower end was connected to a stationary rod, whereas the upper end was connected to a tension transducer (TB-612T, a product of Nippon Koden Co., Ltd.). The strips were suspended under an initial tension of 1.5 g. The strips were soaked in a Krebs-Henseleit solution at 32° C. whose composition in g/l was NaCl: 6.92, KCl: 0.35, MgSO4.7H2 O: 0.29, CaCl2.2H2 O: 0.37, KH2 PO4 : 0.16, NaHCO3 :2.1 and glucose: 1.0 in a Magnus tube, and a gas (95% O2 and 5% CO2) was introduced therein. After being stabilized for 1 to 2 hours, the preparations were used for the experiment. Potassium chloride was added to the Magnus tube to a final concentration of 20 mM. The resulting contraction reaction was recorded on a polygraph (AM-6000, a product of Nippon Koden Co., Ltd.) in equal scales through the tension transducer. KS-504a, KS-504b and KS-504d were each dissolved in dimethyl sulfoxide to a concentration of mg/ml, and the solutions were properly diluted with a Krebs-Henseleit solution and added to the Magnus tube 30 minutes before the application of the contracting
*The rate of inhibition of contraction was calculated according to the
Rate of inhibition of contraction (%)

[3] = minimal lethal dose in mice; type: in vivo; conditions: p.o.
[4] = Oryctolagus cuniculus, read-out: Rate of inhibition of contraction

SMILES	inhibition at 0.03 µg/mL ([1]; test solution 0.03 μg/ml) [%]	inhibition at 0.1 µg/mL ([1]; test solution 0.1 μg/ml) [%]	inhibition at 0.3 µg/mL ([1]; test solution 0.3 μg/ml) [%]	stability in basic substances / alkaline water [2]	Solubility: Also soluble in basic substances [2]	Solubility: Insoluble in [2]	Solubility: Soluble in [2]	inhibition at 10 µg/mL (rabbit aorta; [4]) [%]	inhibition at 30 µg/mL (rabbit aorta; Oryctolagus cuniculus, final concentration 30.0 μg/ml, read-out: Rate of inhibition of contraction) [%]	minimal lethal dose [3] [mg/kg]	inhibition at 0.1 µg/mL (rabbit aorta; Oryctolagus cuniculus, final concentration 0.1 μg/ml, read-out: Rate of inhibition of contraction) [%]	inhibition at 1 µg/mL (rabbit aorta; Oryctolagus cuniculus, final concentration 1.0 μg/ml, read-out: Rate of inhibition of contraction) [%]	inhibition at 3 µg/mL (rabbit aorta; Oryctolagus cuniculus, final concentration 3.0 μg/ml, read-out: Rate of inhibition of contraction) [%]	Rate of inhibition of contraction (rabbit aorta; final concentration 1.0 μg/ml) [%]	Rate of inhibition of contraction (rabbit aorta; final concentration 3.0 μg/ml) [%]
O=CC1=C(C(Cl)(Cl)Cl)C(Cl)(Cl)C(O)C1(Cl)Cl (stereo not drawn) [KS-504e]	15	62	100	readily decomposed	pyridine, monoethanolamine, etc. and alkaline	water, acidic water	methanol, chloroform, acetone, ethyl; also recorded: acetate, acetonitrile; also recorded: dimethylsulfoxide								
OC1C(Cl)(Cl)C(=C(Cl)Cl)C(O)(C(Cl)Cl)C1(Cl)Cl (stereo not drawn) [KS-504d]				readily decomposed	pyridine, monoethanolamine, etc. and alkaline		acetone, ethyl acetate, acetonitrile; also recorded: benzene, methanol, chloroform; also recorded: hexane, water, acidic water	6.9	91						
OC1C(Cl)(Cl)C(=C(Cl)Cl)C2(OC2Cl)C1(Cl)Cl (stereo not drawn) [KS-504a]				readily decomposed	pyridine, monoethanolamine, etc. and alkaline	water, acidic water	methanol, n-butanol, chloroform; also recorded: acetone, ethyl acetate; also recorded: dimethylformamide, dimethylsulfoxide; also recorded: benzene, acetic acid, hexane			300	37	59	82		
OC1C(Cl)(Cl)C(=C(Cl)Cl)C2(OC2Cl)C1(Cl)Cl (stereo not drawn) [KS-504b]				readily decomposed	pyridine, monoethanolamine, etc. and alkaline	water, acidic water	methanol, chloroform, acetone, ethyl; also recorded: acetate, acetonotrile; also recorded: dimethylsulfoxide	100						76	80

Reference: US4912132A, “Novel substances KS-504a, KS-504b, KS-504d and KS-504e and process for their preparation” (Kyowa Hakko Kogyo Co., Ltd., priority 1987, dated 1990)
